Measurements reported in patent publication US9221825B2, “Pyrazolopyrimidinone compound and imidazo triazone compound for treating erectile dysfunction” (Zhejiang Dade Pharmaceutical Group Co., Ltd., priority 2011, dated 2015).

Tested on: adult sexual mature male Sprague-Dawley rats
Test: Efficacy test of the drug for anti-Erectile Dysfunction (copulation test)
Format: in vivo, rat
Settings: for Catching times / Latent period of catch behavior / Riding times: intragastric administration
[1] = animal experiments, in comparison with Sildenafil
[2] = male Sprague-Dawley rats, dosage 2.2 mg/kg bw
[3] = male Sprague-Dawley rats, dosage 4.4 mg/kg bw
[4] = male Sprague-Dawley rats, dosage 8.8 mg/kg bw

Structure (SMILES) | Effective drug duration [1] | Onset time [1] | Effect on catching times in comparison with the solution control group (male Sprague-Dawley rats, P<0.05) | Catching times [2] | Latent period of catch behavior [2] | Riding times [2] | Catching times [3] | Latent period of catch behavior [3] | Riding times [3] | Catching times [4] | Latent period of catch behavior [4] | Riding times [4]
CCCc1nn(C)c2c(=O)[nH]c(-c3cc(S(=O)(=O)N4CCCN(C)CC4)ccc3OCC)nc12.O=C(O)CC(O)(CC(=O)O)C(=O)O [ED9001, 5-[2-ethoxy-5-(4-methyl-1-homopiperazinylsulfonyl)]-phenyl-1-methyl-3-n-propyl-1,6-dihydro-7H-pyrazolo[4,3-d]pyrimidine-7-one citrate] | longer | shorter | distinct effect on improving catching times | 31 ± 9 times | 12.1 ± 3.6 s | 24 ± 7 times | 26 ± 9 times | 14.4 ± 7.5 s | 21 ± 7 times | 32 ± 9 times | 14.2 ± 4.9 s | 27 ± 10 times
CCCc1nn(C)c2c(=O)[nH]c(-c3cc(S(=O)(=O)N4CCN(C)CC4)ccc3OCC)nc12 [Sildenafil, reference compound] |  |  |  |  |  |  | 27 ± 6 times | 12.5 ± 6.5 s | 24 ± 7 times |  |  | 
